Patent publication US20250144067A1, “PERSONALIZED STARVATION THERAPY FOR CANCER” (Faeth Therapeutics, Inc., priority 2021, published 2025)
Counter-ions that a name gives are not always drawn.

What follows are compounds tested on NCI-H292 lung cancer cells (assay: FDA drug screening, complete media vs cholesterol-free media with simvastatin (TABLE 2)). Settings: not given.
Assay type: cell-based, human

Point of comparison: `O=C(O)c1ccccc1` [Benzoic acid], “Cholesterol-free media + simvastatin (0.04 μM)” value 1.277. Against it:
- CC(C)(C)CC(C)(C)c1ccc(OCCOCC[N+](C)(C)Cc2ccccc2)cc1 [Benzethonium chloride] — lower, 0.6785

In the case of `CC(C)(C)CC(C)(C)c1ccc(OCCOCC[N+](C)(C)Cc2ccccc2)cc1` [Benzethonium chloride], the “Complete Media” value is reported as 0.4348.

Point of comparison: `CC(C)(C)CC(C)(C)c1ccc(OCCOCC[N+](C)(C)Cc2ccccc2)cc1` [Benzethonium chloride], Difference −0.24. Against it:
- O=C(O)c1ccccc1 [Benzoic acid] — higher, −0.11

Same assay, conditions: NCI-H292 cells, FDA drug library screen, cholesterol-free media with simvastatin 0.04 μM

Point of comparison: `C/C(=C(\CCOP(=O)(O)O)SC(=O)c1ccccc1)N(C=O)Cc1cnc(C)nc1N` [Benfotiamine], “Cholesterol-free media + simvastatin (0.04 μM)” value 1.23. Against it:
- O=C(/C=C/c1cccc(S(=O)(=O)Nc2ccccc2)c1)NO [Belinostat] — lower, 0.2409
- CCC1(C)CC(=O)NC(=O)C1 [Bemegride] — lower, 0.8627
- CC(C)(CCCCCC(O)CCCCCC(C)(C)C(=O)O)C(=O)O [Bempedoic acid] — lower, 1.143
- CCOC(=O)[C@H](CCc1ccccc1)N[C@H]1CCc2ccccc2N(CC(=O)O)C1=O [Benazepril (hydrochloride)] — lower, 1.077
- NCCCC[C@H](N)C(=O)O.O=C(O)COc1nn(Cc2ccccc2)c2ccccc12 [Bendazac L-Lysine] — lower, 1.079
- c1ccc(Cc2nc3ccccc3[nH]2)cc1 [Bendazol] — lower, 1.208
- CC(=O)Nc1ccc(OC(=O)c2ccccc2OC(C)=O)cc1 [Benorilate] — higher, 1.253
- NC(CO)C(=O)NNCc1ccc(O)c(O)c1O (centres unmarked) [Benserazide (hydrochloride)] — lower, 1.132
- CN(C)CCCOc1nn(Cc2ccccc2)c2ccccc12 [Benzydamine (hydrochloride)] — lower, 0.5074
- OCc1ccccc1 [Benzyl alcohol] — lower, 0.8765
- CC(C)COCC(CN(Cc1ccccc1)c1ccccc1)N1CCCC1 (centres unmarked) [Bepridil (hydrochloride hydrate)] — higher, 1.501

Same assay, conditions: NCI-H292 cells, FDA drug library screen, complete media

Point of comparison: `OCc1ccccc1` [Benzyl alcohol], “Complete Media” value 1.062. Against it:
- O=C(/C=C/c1cccc(S(=O)(=O)Nc2ccccc2)c1)NO [Belinostat] — lower, 0.1471
- CCC1(C)CC(=O)NC(=O)C1 [Bemegride] — lower, 1.013
- CC(C)(CCCCCC(O)CCCCCC(C)(C)C(=O)O)C(=O)O [Bempedoic acid] — higher, 1.281
- CCOC(=O)[C@H](CCc1ccccc1)N[C@H]1CCc2ccccc2N(CC(=O)O)C1=O [Benazepril (hydrochloride)] — lower, 0.9854
- NCCCC[C@H](N)C(=O)O.O=C(O)COc1nn(Cc2ccccc2)c2ccccc12 [Bendazac L-Lysine] — lower, 0.922
- c1ccc(Cc2nc3ccccc3[nH]2)cc1 [Bendazol] — higher, 1.472
- C/C(=C(\CCOP(=O)(O)O)SC(=O)c1ccccc1)N(C=O)Cc1cnc(C)nc1N [Benfotiamine] — higher, 1.076
- CC(=O)Nc1ccc(OC(=O)c2ccccc2OC(C)=O)cc1 [Benorilate] — higher, 1.11
- NC(CO)C(=O)NNCc1ccc(O)c(O)c1O (centres unmarked) [Benserazide (hydrochloride)] — lower, 1.052
- CN(C)CCCOc1nn(Cc2ccccc2)c2ccccc12 [Benzydamine (hydrochloride)] — higher, 1.108
- CC(C)COCC(CN(Cc1ccccc1)c1ccccc1)N1CCCC1 (centres unmarked) [Bepridil (hydrochloride hydrate)] — higher, 1.762

Same assay, conditions: complete media minus cholesterol-free media + simvastatin; >0 enhanced anti-cancer activity, about 0 neutral, <0 antagonist

Point of comparison: `CN(C)CCCOc1nn(Cc2ccccc2)c2ccccc12` [Benzydamine (hydrochloride)], Difference 0.60. Against it:
- CC(C)(CCCCCC(O)CCCCCC(C)(C)C(=O)O)C(=O)O [Bempedoic acid] — lower, 0.14
- c1ccc(Cc2nc3ccccc3[nH]2)cc1 [Bendazol] — lower, 0.26
- OCc1ccccc1 [Benzyl alcohol] — lower, 0.19
- CC(C)COCC(CN(Cc1ccccc1)c1ccccc1)N1CCCC1 (centres unmarked) [Bepridil (hydrochloride hydrate)] — lower, 0.26

Same assay, conditions: complete media minus cholesterol-free media + simvastatin; […]

Compound `CCC1(C)CC(=O)NC(=O)C1` [Bemegride] has a Difference of 0.15.

Same assay, conditions: complete media vs cholesterol-free media + simvastatin (0.04 μM); >0 enhanced anti-cancer activity, about 0 neutral, <0 antagonist

Point of comparison: `C/C(=C(\CCOP(=O)(O)O)SC(=O)c1ccccc1)N(C=O)Cc1cnc(C)nc1N` [Benfotiamine], Difference −0.15. Against it:
- O=C(/C=C/c1cccc(S(=O)(=O)Nc2ccccc2)c1)NO [Belinostat] — higher, −0.09
- CCOC(=O)[C@H](CCc1ccccc1)N[C@H]1CCc2ccccc2N(CC(=O)O)C1=O [Benazepril (hydrochloride)] — higher, −0.09
- CC(=O)Nc1ccc(OC(=O)c2ccccc2OC(C)=O)cc1 [Benorilate] — higher, −0.14
- NC(CO)C(=O)NNCc1ccc(O)c(O)c1O (centres unmarked) [Benserazide (hydrochloride)] — higher, −0.08

Same assay, conditions: complete media vs cholesterol-free media + simvastatin (0.04 μM); […]

`NCCCC[C@H](N)C(=O)O.O=C(O)COc1nn(Cc2ccccc2)c2ccccc12` [Bendazac L-Lysine] was tested, and the Difference was −0.16.

Each compound was assayed on NCI-H292 lung cancer cells (assay: FDA drug screening, complete media vs cholesterol-free media without statin (TABLE 1)). Settings: not given.
Assay type: cell-based, human

Point of comparison: `O=C(O)c1ccccc1` [Benzoic acid], Cholesterol-free 1.119. Against it:
- CC(C)(C)CC(C)(C)c1ccc(OCCOCC[N+](C)(C)Cc2ccccc2)cc1 [Benzethonium chloride] — lower, 0.07505

Point of comparison: `O=C(O)c1ccccc1` [Benzoic acid], Complete 1.063. Against it:
- CC(C)(C)CC(C)(C)c1ccc(OCCOCC[N+](C)(C)Cc2ccccc2)cc1 [Benzethonium chloride] — lower, 0.2197

Point of comparison: `O=C(O)c1ccccc1` [Benzoic acid], Difference −0.06. Against it:
- CC(C)(C)CC(C)(C)c1ccc(OCCOCC[N+](C)(C)Cc2ccccc2)cc1 [Benzethonium chloride] — higher, 0.14

Same assay, conditions: Complete minus Cholesterol-free; >0 enhanced anti-cancer activity, about 0 neutral, <0 antagonist

Point of comparison: `NC(CO)C(=O)NNCc1ccc(O)c(O)c1O` (centres unmarked) [Benserazide (hydrochloride)], Difference 0.01. Against it:
- CC(C)(CCCCCC(O)CCCCCC(C)(C)C(=O)O)C(=O)O [Bempedoic acid] — lower, −0.25
- CC(C)COCC(CN(Cc1ccccc1)c1ccccc1)N1CCCC1 (centres unmarked) [Bepridil (hydrochloride hydrate)] — lower, −0.25

Same assay, conditions: Complete minus Cholesterol-free; […]

In the case of `CCC1(C)CC(=O)NC(=O)C1` [Bemegride], the Difference is reported as −0.76.

Same assay, conditions: Complete minus Cholesterol-free; greater than 0 enhanced anti-cancer activity, about 0 neutral, below 0 antagonist

With `OCc1ccccc1` [Benzyl alcohol] the Difference was −0.14.

Same assay, conditions: NCI-H292 cells in cholesterol-free media without statin

In the case of `CCC1(C)CC(=O)NC(=O)C1` [Bemegride], the Cholesterol-free is reported as 1.658.

Same assay, conditions: NCI-H292 cells in complete media

`CCC1(C)CC(=O)NC(=O)C1` [Bemegride] gave a Complete of 0.894.

Same assay, conditions: NCI-H292 cells, FDA drug library screen, cholesterol-free media without statin

Work on `OCc1ccccc1` [Benzyl alcohol] yielded a Cholesterol-free of 1.033.

Same assay, conditions: NCI-H292 cells, FDA drug library screen, complete media

Compound `OCc1ccccc1` [Benzyl alcohol] has a Complete of 0.8945.

Same assay, conditions: NCI-H292 cells, cholesterol-free media without statin

Point of comparison: `CC(=O)Nc1ccc(OC(=O)c2ccccc2OC(C)=O)cc1` [Benorilate], Cholesterol-free 1.212. Against it:
- CC(C)(CCCCCC(O)CCCCCC(C)(C)C(=O)O)C(=O)O [Bempedoic acid] — higher, 1.343
- CCOC(=O)[C@H](CCc1ccccc1)N[C@H]1CCc2ccccc2N(CC(=O)O)C1=O [Benazepril (hydrochloride)] — higher, 1.314
- C/C(=C(\CCOP(=O)(O)O)SC(=O)c1ccccc1)N(C=O)Cc1cnc(C)nc1N [Benfotiamine] — lower, 1.163
- CN(C)CCCOc1nn(Cc2ccccc2)c2ccccc12 [Benzydamine (hydrochloride)] — higher, 1.444
- CC(C)COCC(CN(Cc1ccccc1)c1ccccc1)N1CCCC1 (centres unmarked) [Bepridil (hydrochloride hydrate)] — lower, 1.151

Same assay, conditions: NCI-H292 cells, cholesterol-free media without statin, FDA drug library screen

Point of comparison: `NC(CO)C(=O)NNCc1ccc(O)c(O)c1O` (centres unmarked) [Benserazide (hydrochloride)], Cholesterol-free 1.039. Against it:
- O=C(/C=C/c1cccc(S(=O)(=O)Nc2ccccc2)c1)NO [Belinostat] — lower, 0.07179
- NCCCC[C@H](N)C(=O)O.O=C(O)COc1nn(Cc2ccccc2)c2ccccc12 [Bendazac L-Lysine] — lower, 0.6107
- c1ccc(Cc2nc3ccccc3[nH]2)cc1 [Bendazol] — higher, 1.234

Same assay, conditions: NCI-H292 cells, complete media

Point of comparison: `CN(C)CCCOc1nn(Cc2ccccc2)c2ccccc12` [Benzydamine (hydrochloride)], Complete 1.002. Against it:
- CC(C)(CCCCCC(O)CCCCCC(C)(C)C(=O)O)C(=O)O [Bempedoic acid] — higher, 1.094
- CCOC(=O)[C@H](CCc1ccccc1)N[C@H]1CCc2ccccc2N(CC(=O)O)C1=O [Benazepril (hydrochloride)] — lower, 0.8774
- C/C(=C(\CCOP(=O)(O)O)SC(=O)c1ccccc1)N(C=O)Cc1cnc(C)nc1N [Benfotiamine] — lower, 0.7915
- CC(=O)Nc1ccc(OC(=O)c2ccccc2OC(C)=O)cc1 [Benorilate] — lower, 0.8832
- CC(C)COCC(CN(Cc1ccccc1)c1ccccc1)N1CCCC1 (centres unmarked) [Bepridil (hydrochloride hydrate)] — lower, 0.8961

Same assay, conditions: NCI-H292 cells, complete media, FDA drug library screen

Point of comparison: `c1ccc(Cc2nc3ccccc3[nH]2)cc1` [Bendazol], Complete 1.354. Against it:
- O=C(/C=C/c1cccc(S(=O)(=O)Nc2ccccc2)c1)NO [Belinostat] — lower, 0.1605
- NCCCC[C@H](N)C(=O)O.O=C(O)COc1nn(Cc2ccccc2)c2ccccc12 [Bendazac L-Lysine] — lower, 1.115
- NC(CO)C(=O)NNCc1ccc(O)c(O)c1O (centres unmarked) [Benserazide (hydrochloride)] — lower, 1.047

Same assay, conditions: complete vs cholesterol-free media; >0 enhanced anti-cancer activity, about 0 neutral, <0 antagonist

Point of comparison: `c1ccc(Cc2nc3ccccc3[nH]2)cc1` [Bendazol], Difference 0.12. Against it:
- O=C(/C=C/c1cccc(S(=O)(=O)Nc2ccccc2)c1)NO [Belinostat] — lower, 0.09

Same assay, conditions: complete vs cholesterol-free media; […]

`NCCCC[C@H](N)C(=O)O.O=C(O)COc1nn(Cc2ccccc2)c2ccccc12` [Bendazac L-Lysine] gave a Difference of 0.50.

Same assay, conditions: complete vs cholesterol-free media; greater than 0 enhanced anti-cancer activity, about 0 neutral, below 0 antagonists

Point of comparison: `CC(=O)Nc1ccc(OC(=O)c2ccccc2OC(C)=O)cc1` [Benorilate], Difference −0.33. Against it:
- CCOC(=O)[C@H](CCc1ccccc1)N[C@H]1CCc2ccccc2N(CC(=O)O)C1=O [Benazepril (hydrochloride)] — lower, −0.44
- C/C(=C(\CCOP(=O)(O)O)SC(=O)c1ccccc1)N(C=O)Cc1cnc(C)nc1N [Benfotiamine] — lower, −0.37
- CN(C)CCCOc1nn(Cc2ccccc2)c2ccccc12 [Benzydamine (hydrochloride)] — lower, −0.44
